Laboratory results from BigSolDB 2.1.

COc1cc2nc(Cl)nc(N)c2cc1OC
solubility (mole fraction)
Settings | 273.15 K | 278.15 K | 283.15 K | 288.15 K | 293.15 K | 298.15 K | 303.15 K | 308.15 K | 313.15 K
in 1,4-dioxane | – | – | – | 0.000108 | 0.000129 | 0.000154 | 0.000183 | 0.000216 | 0.000253
in DMF | 0.00286 | 0.00336 | 0.00405 | 0.00495 | 0.00586 | 0.00687 | 0.00817 | 0.00979 | 0.0116
in NMP | 0.00572 | 0.00648 | 0.00746 | 0.00838 | 0.00932 | 0.0103 | 0.0113 | 0.0124 | 0.0137
in cyclohexanone | 0.00109 | 0.0013 | 0.00151 | 0.00177 | 0.00206 | 0.00241 | 0.0028 | 0.00324 | 0.00385
in ethanol | 0.000169 | 0.000206 | 0.000246 | 0.0003 | 0.000359 | 0.000423 | 0.000497 | 0.000585 | 0.000693
in ethyl acetate | 0.000278 | 0.000322 | 0.000375 | 0.000443 | 0.000522 | 0.000618 | 0.000725 | 0.000853 | 0.00101
in isobutanol | 0.000232 | 0.000272 | 0.000325 | 0.00038 | 0.000443 | 0.000514 | 0.000601 | 0.000706 | 0.000841
in isopropanol | 0.000142 | 0.000173 | 0.000209 | 0.000257 | 0.000306 | 0.000362 | 0.000434 | 0.000518 | 0.000622
in methanol | 0.000109 | 0.000139 | 0.000171 | 0.00021 | 0.000255 | 0.00031 | 0.000378 | 0.000458 | 0.000544
in n-butanol | 0.000252 | 0.000294 | 0.000345 | 0.000402 | 0.000467 | 0.000548 | 0.000648 | 0.000763 | 0.000929
in n-propanol | 0.000209 | 0.000245 | 0.00029 | 0.000343 | 0.000403 | 0.000471 | 0.000552 | 0.000657 | 0.000769
in toluene | 2e-06 | 2.7e-06 | 3.7e-06 | 5.1e-06 | 6.9e-06 | 9.2e-06 | 1.26e-05 | 1.66e-05 | 2.17e-05
